Results on 15 compounds are retold here after ChEMBL document CHEMBL6178019, “Discovery of CYP1A1 Inhibitors for Host-Directed Therapy against Sepsis” (J Med Chem, 2025).

The structures appear in SMILES notation.

Assay type in all cases: cell-based
Data set [1] has as its target T1, CYP1A1 (Homo sapiens, UniProt P04798).
T1 sequence (P04798 whole entry): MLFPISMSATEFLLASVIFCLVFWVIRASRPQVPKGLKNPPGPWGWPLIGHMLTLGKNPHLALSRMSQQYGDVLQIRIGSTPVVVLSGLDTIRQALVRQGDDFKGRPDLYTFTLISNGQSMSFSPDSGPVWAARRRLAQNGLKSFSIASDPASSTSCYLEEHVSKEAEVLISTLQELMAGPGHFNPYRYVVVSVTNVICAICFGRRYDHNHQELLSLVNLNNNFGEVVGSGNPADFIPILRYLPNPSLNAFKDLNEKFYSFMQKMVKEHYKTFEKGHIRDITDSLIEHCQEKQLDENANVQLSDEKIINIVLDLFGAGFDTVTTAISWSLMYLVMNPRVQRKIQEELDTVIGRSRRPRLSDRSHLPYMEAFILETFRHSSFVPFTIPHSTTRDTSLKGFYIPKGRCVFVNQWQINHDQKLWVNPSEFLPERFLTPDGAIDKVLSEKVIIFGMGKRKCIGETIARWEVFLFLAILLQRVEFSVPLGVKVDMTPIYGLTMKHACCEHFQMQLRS
Briefly: Inhibition of CYP1A1 in human Caco-2 cells assessed as relative activity by measuring fold change at 500 nM incubated for 12 hrs by EROD assay relative to control. The note with it: read-out: FC.

In the next data set the target is T2, Cytochrome P450 1A1 (Homo sapiens, UniProt P04798).
T2 sequence (P04798 whole entry): T1 sequence (P04798 whole entry)
Briefly: Inhibition of CYP1A1 in human Caco-2 cells assessed as relative activity by measuring fold change at 5.0 uM incubated for 12 hrs by EROD assay relative to control. The note with it: caco-2, 12 h.

Data set [2] deals with T3, CYP1A1 (Mus musculus, UniProt P00184).
T3 sequence (P00184 whole entry): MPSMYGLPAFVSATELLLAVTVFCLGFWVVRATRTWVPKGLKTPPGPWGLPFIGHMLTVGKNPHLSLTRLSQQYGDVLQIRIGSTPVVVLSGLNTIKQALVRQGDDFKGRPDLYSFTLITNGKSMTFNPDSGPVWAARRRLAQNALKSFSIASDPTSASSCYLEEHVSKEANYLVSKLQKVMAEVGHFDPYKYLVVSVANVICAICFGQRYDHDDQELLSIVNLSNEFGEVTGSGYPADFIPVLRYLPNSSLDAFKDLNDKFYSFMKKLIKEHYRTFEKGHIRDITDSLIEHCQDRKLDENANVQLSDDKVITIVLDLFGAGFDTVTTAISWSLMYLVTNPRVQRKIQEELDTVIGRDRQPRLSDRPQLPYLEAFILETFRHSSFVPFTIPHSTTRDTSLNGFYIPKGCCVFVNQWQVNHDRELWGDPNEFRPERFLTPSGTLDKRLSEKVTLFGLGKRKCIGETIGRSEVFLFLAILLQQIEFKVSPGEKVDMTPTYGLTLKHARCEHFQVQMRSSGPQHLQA
Nature of the data set: Inhibition of CYP1A1 in mouse RAW264.7 cells assessed as relative activity by measuring fold change at 500 nM incubated for 12 hrs by EROD assay relative to control. The note with it: read-out: FC.

In data set [3] the target is T3, CYP1A1. Nature of the data set: Inhibition of CYP1A1 in mouse RAW264.7 cells assessed as relative activity by measuring fold change at 5 uM incubated for 12 hrs by EROD assay relative to control. The note with it: read-out: FC.

With `Cn1c(=O)n(C)c2cc(C(=O)/C=C/c3ccc4ccccc4n3)ccc21`, the fold induction at 12 h, 0.5 µM turned out to be 0.38 at CYP1A1 [1] and 0.61 on CYP1A1 [2]. For the same compound, the “fold change (FC)” value at Cytochrome P450 1A1 is given as 0.13. The fold induction at 12 h, 5 µM at CYP1A1 [3] amounted to 0.17.
On the same counts, the results for `COc1ccc2c(c1)c(/C=C/C(=O)c1ccc3c(c1)n(C)c(=O)n3C)cn2Cc1ccccc1` are 1.14, 1.15, 0.81 and 0.81.
As to `CCCCOc1ccc(/C=C/C(=O)c2ccc3c(c2)n(C)c(=O)n3C)cc1`, the figures for the fold induction at 12 h, 0.5 µM on CYP1A1 [1] and at CYP1A1 [2] were 0.91 and 0.95, respectively. Further, the “fold change (FC)” value on Cytochrome P450 1A1 is 0.23. Further, at CYP1A1 [3], the fold induction at 12 h, 5 µM is 0.77.
Turning to `Cn1c(=O)n(C)c2cc(C(=O)/C=C/C3CC3)ccc21`, the fold induction at 12 h, 0.5 µM is 0.71 on CYP1A1 [1] and 0.8 at CYP1A1 [2]. Besides, the “fold change (FC)” value on Cytochrome P450 1A1 is listed as 0.12. The fold induction at 12 h, 5 µM on CYP1A1 [3] amounted to 0.38.
On to `Cn1c(=O)n(C)c2cc(C(=O)/C=C/c3ccc(I)o3)ccc21`, for which the figures for the fold induction at 12 h, 0.5 µM on CYP1A1 [1] and at CYP1A1 [2] were 0.5 and 0.75, respectively. Also, the “fold change (FC)” value on Cytochrome P450 1A1 was 0.18. Further, the fold induction at 12 h, 5 µM on CYP1A1 [3] was 0.55.
On the same counts, the results for `Cn1c(=O)n(C)c2cc(C(=O)/C=C/c3ccco3)ccc21` are 0.87, 0.5, 0.47 and 0.31.
On the same counts, the results for `Cn1c(=O)n(C)c2cc(C(=O)/C=C/c3ccc(F)cc3Cl)ccc21` are 0.84, 0.67, 0.38 and 0.56.
Regarding `Cn1c(=O)n(C)c2cc(C(=O)/C=C/c3cc(F)c(F)cc3F)ccc21`, the figures for the fold induction at 12 h, 0.5 µM at CYP1A1 [1] and on CYP1A1 [2] were 0.35 and 1.11, respectively. The “fold change (FC)” value on Cytochrome P450 1A1 amounted to 0.1. Further, the fold induction at 12 h, 5 µM on CYP1A1 [3] was determined as 0.79.
In the case of `Cn1c(=O)n(C)c2cc(C(=O)/C=C/c3ccc(O[Si](C)(C)C(C)(C)C)cc3)ccc21`, the fold induction at 12 h, 0.5 µM at CYP1A1 [1] was 0.69; on CYP1A1 [2] it was 1.11. The “fold change (FC)” value on Cytochrome P450 1A1 is recorded as 0.43. In addition, on CYP1A1 [3], the fold induction at 12 h, 5 µM was 0.89.
For `O=C(/C=C/c1ccc(F)cc1)c1ccccc1` [4-FLUORO CHALCONE] the same measures were 0.83, 1.1, 0.86 and 0.91.
For the compound `Cn1c(=O)n(C)c2cc(C(=O)/C=C/c3cccc(OC(F)(F)F)c3)ccc21`, the fold induction at 12 h, 0.5 µM on CYP1A1 [1] worked out at 0.58; at CYP1A1 [2], 0.62. Moreover, the “fold change (FC)” value on Cytochrome P450 1A1 was determined as 0.17. Further, the fold induction at 12 h, 5 µM on CYP1A1 [3] was found to be 0.16.
For `Cn1c(=O)n(C)c2cc(C(=O)/C=C/c3ccc4ccccc4c3)ccc21` the same measures were 1.18, 0.8, 0.47 and 0.77.
Take `Cn1c(=O)n(C)c2cc(C(=O)/C=C/c3cc4ccccc4o3)ccc21`: the fold induction at 12 h, 0.5 µM worked out at 0.66 at CYP1A1 [1] and 0.82 at CYP1A1 [2]. Besides, at Cytochrome P450 1A1, the “fold change (FC)” value is on record as 0.31. On CYP1A1 [3], the fold induction at 12 h, 5 µM turned out to be 0.52.
For `C#Cc1ccc(/C=C/C(=O)c2ccc3c(c2)n(C)c(=O)n3C)cc1` the same measures were 0.22, 0.63, 0.07 and 0.19.
For `C#Cc1ccc(/C=C/C(=O)c2ccc(N(C)C(C)=O)cc2)cc1`, the fold induction at 12 h, 0.5 µM on CYP1A1 [1] stood at 0.81; on CYP1A1 [2], 1.16. For the same compound, the “fold change (FC)” value at Cytochrome P450 1A1 came out at 0.78. Besides, on CYP1A1 [3], the fold induction at 12 h, 5 µM was 1.04.
